# Assay results as given in US8586548B2, “NAP alpha-aminoisobutyric acid analog with neuroprotective activity” (Ramot at Tel-Aviv University, Ltd., priority 2009, dated 2013).
# Read-outs that look alike come from different tables or passages of the source.
# Assays:
# [1] = intranasal administration to rats, dogs or humans; cited from earlier work
# [2] = test system: rat cerebral cortical neurons; conditions: cited from earlier work
# [3] = test system: beta amyloid peptide (1-42) toxicity; conditions: cited from earlier work
# [4] = test system: newborn apolipoprotein E deficient mice; conditions: newborn apolipoprotein E deficient mice subjected to hypoxia; cited from earlier work
# [5] = target: VQIVYK (SEQ ID NO:10) peptide derived from tau (Homo sapiens, UniProt P10636); assay: In vitro tau-like VQIVYK aggregation assay (Thioflavin S); format: biochemical
# Protocol: In the presence of polyglutamic acid (or heparin), VQIVYK (SEQ ID NO:10) aggregates which can be further detected by Thioflavin S (excitation 485 nm and emission 535) with emission intensity greatly increasing.
# First, different concentrations of polyglutamic acid (0, 100 μM, 250 μM, and 400 μM) VQIVYK (SEQ ID NO:10) and either […] (NH4Ac) 50 mM pH 6.5 or MOPS 20 mM pH 6.5 and Thioflavin S 5 μM were mixed together and incubated at room temperature. The extent of aggregation was read at excitation 485 nm and emission 535 nm using the infinite 200 system with the Magellan program.
# The peptides were added at a range of concentrations (10^−17-10^−9 M) and the extent of aggregation of 100 μM VQIVYK (SEQ ID NO:10) was tested in the presence of polyglutamate 250 μM in MOPS 20 μM, pH 6.5 for 7 days.
# In order to avoid reading self peptide aggregation as VQIVYK aggregation, for each peptide concentration, the fluorescence of the peptide solution without VQIVYK was subtracted from the fluorescence of each peptide concentration containing VQIVYK.
# [6] = intranasal administration in the rat; cited from earlier work
# [7] = test system: fibroblast-like cells and neuronal-like cells; conditions: cited from earlier work
# [8] = test system: primary hippocampal neurons from presenilin 1 (PSI) mutant knock-in mice; conditions: pretreatment; cited from earlier work
# [9] = test system: beta amyloid peptide 25-35 neurotoxicity; conditions: cited from earlier work
molecule,measurement,setting,value
Asn-Ala-Pro-Val-Ser-Ile-Pro-Gln [NAP],plasma levels,[1],measurable plasma levels
same,protection against beta amyloid (25-35),[2]; neuronal-enriched cultures,protected against beta amyloid (25-35)
same,protection against beta amyloid (25-35) toxicity,[2]; neurons seeded on a bed of astrocytes,protect against beta amyloid (amino acids 25-35) toxicity
same,protection against beta amyloid peptide (1-42) toxicity,[3],protection against the toxic beta amyloid peptide (1-42)
same,neurodevelopment,[4],enhances neurodevelopment
same,inhibition of tau aggregation at 10^−13M,"[5]; 100 μM VQIVYK, polyglutamate 250 μM, MOPS pH 6.5, 7 days, FIG. 4, p<0.0005 vs. control",the effect of NAP seems to diminish
same,prevention of tau aggregation (overall),[5]; peptides at 10^−17-10^−9 M,effective for preventing tau aggregation
same,appearance in plasma,[6],rapid appearance in plasma
same,protection against oxidative stress,[7]; fibroblast-like cells,did not protect fibroblast-like cells
same,protection against oxidative stress,[7]; neuronal-like cells,did protect neuronal-like cells
"SALLRSIPA (synthetic activity-dependent neuroprotective protein (ADNP) activity dependent neurotrophic factor 1 (ADNF-1) active core site, ADNF-9)",protection of neurons with increased vulnerability to excitotoxicity,[8],protected by pretreatment with ADNF-9
"recombinant ADNP: recombinant activity-dependent neuroprotective protein (protein, UniProt Q9H2P0 1-1102, looked up) Activity-dependent …: MFQLPVNNLGSLRKARKTVKKILSDIGLEYCKEHIEDFKQFEPNDFYLKNTTWEDVGLWDPSLTKNQDYRTKPFCCSACPFSSKFFSAYKSHFRNVHSEDFENRILLNCPYCTFNADKKTLETHIKIFHAPNASAPSSSLSTFKDKNKNDGLKPKQADSVEQAVYYCKKCTYRDPLYEIVRKHIYREHFQHVAAPYIAKAGEKSLNGAVPLGSNAREESSIHCKRCLFMPKSYEALVQHVIEDHERIGYQVTAMIGHTNVVVPRSKPLMLIAPKPQDKKSMGLPPRIGSLASGNVRSLPSQQMVNRLSIPKPNLNSTGVNMMSSVHLQQNNYGVKSVGQGYSVGQSMRLGLGGNAPVSIPQQSQSVKQLLPSGNGRSYGLGSEQRSQAPARYSLQSANASSLSSGQLKSPSLSQSQASRVLGQSSSKPAAAATGPPPGNTSSTQKWKICTICNELFPENVYSVHFEKEHKAEKVPAVANYIMKIHNFTSKCLYCNRYLPTDTLLNHMLIHGLSCPYCRSTFNDVEKMAAHMRMVHIDEEMGPKTDSTLSFDLTLQQGSHTNIHLLVTTYNLRDAPAESVAYHAQNNPPVPPKPQPKVQEKADIPVKSSPQAAVPYKKDVGKTLCPLCFSILKGPISDALAHHLRERHQVIQTVHPVEKKLTYKCIHCLGVYTSNMTASTITLHLVHCRGVGKTQNGQDKTNAPSRLNQSPSLAPVKRTYEQMEFPLLKKRKLDDDSDSPSFFEEKPEEPVVLALDPKGHEDDSYEARKSFLTKYFNKQPYPTRREIEKLAASLWLWKSDIASHFSNKRKKCVRDCEKYKPGVLLGFNMKELNKVKHEMDFDAEWLFENHDEKDSRVNASKTADKKLNLGKEDDSSSDSFENLEEESNESGSPFDPVFEVEPKISNDNPEEHVLKVIPEDASESEEKLDQKEDGSKYETIHLTEEPTKLMHNASDSEVDQDDVVEWKDGASPSESGPGSQQVSDFEDNTCEMKPGTWSDESSQSEDARSSKPAAKKKATMQGDREQLKWKNSSYGKVEGFWSKDQSQWKNASENDERLSNPQIEWQNSTIDSEDGEQFDNMTDGVAEPMHGSLAGVKLSSQQA",neuroprotection in vitro against severe oxidative stress and beta amyloid peptide 25-35,[9],neuroprotective in vitro
